# Reference: patent US20130158063A1, “Compounds, Compositions and Methods Related to PPAR Antagonists” (GEORGETOWN UNIVERSITY, priority 2010, published 2013)
# “Also recorded” adds a separate entry of the source.
# Assays:
# [1] = tested on: Mouse mammary tumor cell lines MC, 437T, 105T and 34T; Comma1D mammary epithelial cell line; assay: Cytotoxicity against mammary cell lines; format: cell-based; details: 0-25 μM BTB07995, with and without GW501516
# Excerpt: Mouse mammary tumor cell lines MC, 437T, 105T and 34T were generated from primary DMBA-induced tumors in wild-type FVB, MMTV-Pax8PPARγ transgenic, Sca-1 null and Sca-1+/EGFP mice. Comma1D is an immortalized mammary epithelial cell line.
# [2] = target: T1, PPARδ (Homo sapiens, UniProt Q03181); details: cited from earlier work
# T1 construct: purchased Cayman Chemicals
# T1 sequence (Q03181 1-441): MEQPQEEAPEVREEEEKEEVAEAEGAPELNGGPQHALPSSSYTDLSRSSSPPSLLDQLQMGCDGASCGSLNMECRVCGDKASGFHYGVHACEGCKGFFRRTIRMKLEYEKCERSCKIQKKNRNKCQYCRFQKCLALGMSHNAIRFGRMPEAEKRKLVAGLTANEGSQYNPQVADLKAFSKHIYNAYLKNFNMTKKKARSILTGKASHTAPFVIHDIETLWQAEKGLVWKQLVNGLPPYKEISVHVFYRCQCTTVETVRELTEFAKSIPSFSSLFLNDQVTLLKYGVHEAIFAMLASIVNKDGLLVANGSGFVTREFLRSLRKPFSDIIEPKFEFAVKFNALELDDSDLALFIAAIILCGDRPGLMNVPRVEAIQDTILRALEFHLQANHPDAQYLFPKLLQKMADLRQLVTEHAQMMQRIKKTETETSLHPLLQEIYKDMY
# [3] = tested on: PPARα, PPARγ, PPARδ; assay: PPAR reporter assays, isotype profile over the three PPARs; details: for PPAR inhibitor type (Table 1): from reporter data
# [4] = target: T2, PPARα (Homo sapiens, UniProt Q07869); assay: Fluorescent Polarization (FP) binding assay with corepressor peptides, PPARα; details: Nb = no binding
# T2 construct: purchased Cayman Chemicals
# T2 sequence (Q07869 239-466 limits assumed): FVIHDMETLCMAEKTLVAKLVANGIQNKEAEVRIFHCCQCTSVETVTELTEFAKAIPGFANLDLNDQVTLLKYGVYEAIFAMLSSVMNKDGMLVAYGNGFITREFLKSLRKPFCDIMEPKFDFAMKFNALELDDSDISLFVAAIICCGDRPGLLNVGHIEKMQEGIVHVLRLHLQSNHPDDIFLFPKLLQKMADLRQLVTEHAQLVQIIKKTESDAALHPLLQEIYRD
# Experimental: (§1) For PPARγ screening, a fluorescent ligand supplied by Cayman Chemicals was also used. All compounds were dissolved in DMSO as 10 mM stock solutions and the final DMSO content in the assay was <1%. A TECAN Ultra 485 multi-functional microplate reader and GraphPad prism 4 software were used for measurements and analysis, respectively.
# (§2) PPAR antagonists are expected to enhance the affinities of the corepressor peptides, and therefore, FP should increase as the compound concentration increases. Agonists would be expected to weaken the affinity of the same co-repressor peptide. Although this effect occurs for PPARγ, the dissociation of corepressor peptides varies for PPARα and PPARδ due to altered presentations of the overlapping coactivator/corepressor binding surfaces (Stanley T. B. et al. Biochemistry 42:9278-87, 2003). Compounds were screened initially against PPARγ and PPARδ at 1 and 100 μM. If binding was observed, titration experiments from 10 nM to 100 μM were carried out in triplicate with all three PPARs. […] For screening, either enhancement or weakening of FP was considered active.
# (§3) Virtual screening for PPARγ was conducted against 56,000 compounds from the Maybridge library that targeted the ligand binding domain (LBD) of PPARγ, and 10 conformations of each compound were docked to the LBD using Autdock4 software (Scripps Institute). Sixty of the top ranked compounds were ordered from Maybridge, and 58 were available for evaluation. Fluorescent Polarization (FP) assays were established with the tagged co-repressor peptides NCoR1 and SMRT, the recombinant PPARα and PPARγ ligand-binding domains and full-length PPARδ. […] Sd-107 and its analogs are disclosed herein. The chemical structure is shown below.
# [5] = target: T3, PPARγ (Homo sapiens, UniProt P37231); assay: Fluorescent Polarization (FP) binding assay with corepressor peptides, PPARγ; details: FP assay; Nb = no binding; read-out: Binding assay EC50, γ
# T3 construct: purchased Cayman Chemicals
# T3 sequence (P37231 238-503 limits assumed): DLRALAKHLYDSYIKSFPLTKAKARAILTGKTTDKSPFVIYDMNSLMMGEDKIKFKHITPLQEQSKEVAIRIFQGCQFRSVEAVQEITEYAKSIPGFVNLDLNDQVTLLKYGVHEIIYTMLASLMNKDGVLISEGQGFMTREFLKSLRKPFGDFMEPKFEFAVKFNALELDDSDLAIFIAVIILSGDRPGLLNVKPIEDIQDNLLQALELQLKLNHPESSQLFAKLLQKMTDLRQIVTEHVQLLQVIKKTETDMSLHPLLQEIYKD
# Experimental: as §1, §2, §3
# [6] = target: T1, PPARδ; assay: Fluorescent Polarization (FP) binding assay with corepressor peptides, PPARδ; details: Nb = no binding
# Experimental: as §1, §2, §3
# [7] = tested on: PPARα; assay: PPAR reporter assay in 293T cells, PPARα (agonist WY14643); format: cell-based; details: 1 μM agonist WY14643
# [8] = target: T4, PPARγ (Mus musculus, UniProt P37238); assay: PPAR reporter assay in 293T cells, PPARγ (agonist GW7845); format: cell-based; details: HEK-293T, 1 μM agonist GW7845, 293T cells, read-out: Reporter assay (% inhibition), γ; for inhibition at 1 µM: 1 μM compound; for inhibition at 10 µM: 10 μM compound; for inhibition at 25 µM: 25 μM compound
# T4 construct: expressed in transfected cells; host or cells: 293T cells
# T4 sequence (P37238 1-505): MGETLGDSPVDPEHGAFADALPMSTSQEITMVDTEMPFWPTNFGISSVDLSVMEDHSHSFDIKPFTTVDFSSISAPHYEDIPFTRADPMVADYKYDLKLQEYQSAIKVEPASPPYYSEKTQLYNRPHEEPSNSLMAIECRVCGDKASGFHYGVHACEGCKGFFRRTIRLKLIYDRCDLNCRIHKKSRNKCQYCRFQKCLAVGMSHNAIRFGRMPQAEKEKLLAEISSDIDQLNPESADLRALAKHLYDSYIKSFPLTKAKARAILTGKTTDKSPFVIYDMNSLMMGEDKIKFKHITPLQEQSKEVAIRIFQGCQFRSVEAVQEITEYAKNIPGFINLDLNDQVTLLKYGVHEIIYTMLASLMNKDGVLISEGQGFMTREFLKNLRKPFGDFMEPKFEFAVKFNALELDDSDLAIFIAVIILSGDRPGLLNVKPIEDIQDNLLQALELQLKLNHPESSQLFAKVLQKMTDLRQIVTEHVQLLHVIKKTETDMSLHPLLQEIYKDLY
# [9] = tested on: PPARδ; assay: PPAR reporter assay in 293T cells, PPARδ (agonist GW501516); format: cell-based; details: 1 μM agonist GW501516
"Binding assay EC50, α [4]",EC50 [5],"Binding assay EC50, δ [6]",inhibition at 1 µM [8],inhibition at 10 µM [8],inhibition at 25 µM [8],Structure (SMILES),Cytotoxicity to mouse mammary cell lines [1],PPARδ ligand potency and selectivity (literature) [2],"Agonist activity in Gal4-mPPAR reporter assays ([3]; 293T cells, 24 hr, absence of specific ligand)",PPAR isotype selectivity in reporter assays ([3]; inhibition of activation by 1 μM agonist),"Reporter assay (% inhibition), α ([7]; 1 μM compound)","Reporter assay (% inhibition), α ([7]; 10 μM compound)","Reporter assay (% inhibition), α ([7]; 25 μM compound)","Reporter assay (% inhibition), δ ([9]; 1 μM compound)","Reporter assay (% inhibition), δ ([9]; 10 μM compound)","Reporter assay (% inhibition), δ ([9]; 25 μM compound)",PPAR inhibitor type (Table 1) [3]
,,,,,,"O=C(NCCS(=O)(=O)c1ccc(C(F)(F)F)cn1)c1ccc(Cl)cc1 [BTB07995, reference compound]",not cytotoxic,potent and selective ligand for PPARδ,"not an agonist for PPARα, PPARδ and PPARγ",PPARδ selectivity at lower concentrations; also recorded: selective antagonist of PPARδ,,,,,,,
nb,0.41 µM,δ nb,19%,28%,79%,CC(=O)Oc1ccc(C(=O)NN(C(=O)c2ccc(OC(C)=O)cc2)S(=O)(=O)c2ccc(C(C)(C)C)cc2)cc1 [YL-1-87],,,,,0%,0%,52%,δ 18%,23%,60%,Pan inhibitor
nb,22.3 µM,δ nb,0%,0%,10%,CC(C)(C)c1ccc(S(=O)(=O)N(NC(=O)c2ccc(O)cc2)C(=O)c2ccc(O)cc2)cc1 [YL-1-88],,,,,0%,0%,0%,0%,14%,40%,PPARδ inhibitor
